According to US20240300913A1, “FLAVONE DERIVATIVE AND USE THEREOF FOR IMPROVING PULMONARY FIBROSIS” (A-CHEMBIO CO., LTD, priority 2023, published 2024):

Legend:
[1] = system: A549 cells; assay: MTT cytotoxicity evaluation in A549 cells; type: cell-based; conditions: for cell viability: compared to untreated control
Description: To confirm the effect of novel flavone derivative I on cell viability, A549 cells, derived from lung cancer, were used to examine cell viability with MTT [3-(4,5-dimethylthiazol-2-yl)-2,5-diphenyltetrazolium bromide]. After being suspended in a medium, A549 cells were dispensed into a 96-well plate and incubated for 24 hours. After 24 hours, 200 μL of a medium containing 0 to 20 μM BGC was added to each well of the plate and incubated for 24 or 48 hours. After incubation, MTT was diluted (0.5 mg/ml) in phosphate-buffered saline (PBS). Then, 20 μL of the diluted MTT was dispensed into each well, and incubation was performed in a CO2 incubator for 4 hours. After 4 hours, the MTT solution was removed, and 200 μL of dimethyl sulfoxide (DMSO) was dispensed into each well to dissolve the formazan precipitate for 5 minutes. Next, the absorbance was measured at 595 nm.
(§1) Cytotoxicity tests of novel flavone derivative II (Achem II) on A549 cells, HULEC-5a cells, and HLF cells were performed in the same manner as in Example 1 above, using the MTT assay. The results thereof are shown in FIGS. 17 to 19 as cell viability (%) after 24, 48, and 72 hours compared to that of the control group, the untreated sample group.
as §1, with “III” for “II”, “III)” for “II)”, “27” for “17”, “29” for “19”

[2] = system: HULEC-5a cells; assay: MTT cytotoxicity evaluation in HULEC-5a cells; type: cell-based, human; conditions: incubated for 24, 48, and 72 hours
Description: (§2) To confirm the effect of novel flavone derivative I on cell viability, HULEC-5a, human lung microvascular endothelial cells, were used to examine cell viability with MTT [3-(4,5-dimethylthiazol-2-yl)-2,5-diphenyltetrazolium bromide]. After being suspended in a medium, HULEC-5a cells were dispensed into a 96-well plate and incubated for 24 hours. […] After incubation, all media was removed, and MTT was diluted (0.5 mg/mL) in phosphate-buffered saline (PBS). Then, 200 μL of the diluted MTT was dispensed into each well, and incubation was performed in a CO2 incubator for 4 hours. After 4 hours, the MTT solution was removed, and 160 μL of dimethyl sulfoxide (DMSO) was dispensed into each well to dissolve the formazan precipitate for 30 minutes. Next, the absorbance was measured at 570 nm.
as §1
as §1, with “III” for “II”, “III)” for “II)”, “27” for “17”, “29” for “19”

[3] = system: HLF cells; assay: MTT cytotoxicity evaluation in HLF cells; type: cell-based, human; conditions: all treatment concentrations up to 10 μM, incubated for 24, 48, and 72 hours, compared to untreated control
Description: as §2, with “viability,” for “viability, HULEC-5a,”, “fibroblasts (HLF)” for “microvascular endothelial cells,”, “HLF” for “HULEC-5a”
as §1
as §1, with “III” for “II”, “III)” for “II)”, “27” for “17”, “29” for “19”

[4] = system: HLF cells; assay: Effect upon TGF-β1 treatment in HLF cells (western blot of protein levels); type: cell-based, human
Description: After suspending 5×10^6 human lung fibroblast (HLF) cells in a medium, […] dispensed into a 100-mm plate, and incubated for 24 hours. […] After 24 and 48 hours of incubation, the cells were lysed with RIPA lysis buffer ([50 mM Tris]-Cl (pH, 7.4), 1% NP-40, 150 mM NaCl, 1 mM EDTA, and 1 mM phenylmethylsulfonyl fluoride (PMSF)) containing MG-132 (10 μM, proteasome inhibitor, protect the HIF-1α subunit from proteasome degradation). Next, only the supernatant was collected by centrifugation (at 13,000 rpm for 7 minutes) at 4° C., and the proteins were separated by SDS-polyacrylamide gel electrophoresis (SDS-PAGE). The separated proteins were transferred to a polyvinylidene difluoride membrane (PVDF membrane), reacted in 5% nonfat dry milk for 2 hours, and then reacted with primary antibodies at 4° C. overnight. After overnight, the proteins further reacted with secondary antibodies corresponding to the respective primary antibodies. Then, the protein band was examined, according to the manufacturer's protocol, using an ECL kit.
The effect of novel flavone derivative II upon TGF-β1 treatment in HLF cells was evaluated in the same manner as in Example 1 above.
The effect of novel flavone derivative III upon TGF-β1 treatment in HLF cells was evaluated in the same manner as in Example 1 above.

[5] = system: A549 cells; assay: Effect upon EGF treatment in A549 cells (western blot of protein levels); type: cell-based; conditions: 1 hour
Description: A549 cells, derived from lung cancer, were incubated at different cell numbers depending on the sample treatment time. 4.5×10^5 cells (30 minutes to 12 hours), 4.0×10^5 cells (24 hours), and 3.5×10^5 cells (48 hours) were suspended in the respective media, dispensed into a 60-mm plate, and incubated for 24 hours. After 24 hours, each plate was treated with EGF (2 ng/ml) alone or in combination with novel flavone derivative I at varying concentrations or a predetermined concentration. After a predetermined period (30 minutes to 48 hours) of incubation, the cells were lysed with RIPA lysis buffer ([50 mM Tris]-Cl (pH, 7.4), 1% NP-40, 150 mM NaCl, 1 mM EDTA, and 1 mM, phenylmethylsulfonyl fluoride (PMSF)) containing MG-132 (10 μM). Next, only the supernatant was collected by centrifugation (at 14,000 rpm for 10 minutes) at 4° C., and the proteins were separated by SDS-polyacrylamide gel electrophoresis (SDS-PAGE). […]
FIGS. 11 and 12 show the results thereof. […] Thus, the degree to which pulmonary fibrosis-related factors, whose expression levels were increased in A549 cells by EGF treatment, were inhibited by the treatment with novel flavone derivative I was evaluated.
The effect of novel flavone derivative II upon EGF treatment in A549 cells was evaluated in the same manner as in Example 1 above.

For `COc1ccc(-c2c(-c3ccc(O)c(OC)c3)oc3cc(OC)c(OC)cc3c2=O)cc1` [novel flavone derivative II, 2-(4-hydroxy-3-methoxyphenyl)-6,7-dimethoxy-3-(4-methoxyphenyl)-4H-chromen-4-one], the cell viability ([1]; all treatment concentrations, incubated for 24 and 48 hours) was no less than 80%, the cell viability ([1]; concentrations of 3 μM or higher, incubated for 72 hours) was no more than 80% and the cell viability ([2]; all treatment concentrations up to 10 μM, compared to untreated control) was no less than 80%. For the same compound, the cell viability [3] was no less than 80%, the “levels of fibronectin, α-SMA, HIF-1α, and COL1, increased by TGF-β1 treatment” value ([4]; TGF-β1 treatment, FIG. 23) was “decreased” and the “level of NOX2, a fibrosis-related factor increased by EGF treatment” value ([5]; 2 ng/mL EGF and compound, FIG. 24) was “decreased”.
With `COc1ccc(-c2c(-c3ccc(O)c(O)c3)oc3cc(OC)c(OC)cc3c2=O)cc1` [novel flavone derivative I, 2-(3,4-dihydroxyphenyl)-6,7-dimethoxy-3-(4-methoxyphenyl)-4H-chromen-4-one] the cytotoxicity ([1]; treatment concentration of 5 μM, incubated for 24 hours, MTT) was “No cytotoxicity was observed”, the cell viability ([1]; treatment concentration of 5 μM, incubated for 48 hours) was “about 80%” and the cytotoxicity ([2]; treatment concentrations of up to 5 μM, MTT) was “No cytotoxicity was observed”. The cell viability [3] was no less than 80%, the “levels of fibrosis-related factors (fibronectin, COL4, α-SMA, and HIF-1α), increased by TGF-β1 treatment” value ([4]; 5 ng/mL TGF-β1 and 1 and 3 μM compound, 24 hours, FIG. 10) was “decreased” and the “levels of fibrosis-related factors (p-EGFR, EGFR, p-AKT, HIF-1α, and NOX2), increased by EGF treatment” value ([5]; 2 ng/mL EGF and compound at 1, 3, and 5 or 2 μM, FIGS. 11 and 12) was “decreased”.
